Measured values published in patent US20040045805A1, “Novel process for preparing and harvesting crystalline particles” (priority 2000, published 2004).

Assay: Malvern laser diffraction particle sizing
Assay type: physicochemical
Settings: Malvern Mastersizer X; dispersant iso octane/lecithin 0.05% w/w; sonicated 3 minutes; one analysis per sample
Method: Particles of Examples 1A and 1B were analysed using Malvern laser diffraction particle sizing. Instrument: Malvern Mastersizer X Lens: 45 mm Reverse Fourier Analysis: 0607 presentation code Dispersant: Iso Octane/Lecithin 0.05% w/w Pre dispersion: Sonicate for 3 minutes Obscuration: 10% to 16% One analysis per sample was carried out. The median particle size (D50), particle size at 90% undersize (D90) and particle size at 10% undersize (D10) were used as responses to characterise the medium, course, and fine particles.

D10 (particle size at 10% undersize) [μm] | D50 (median particle size) [μm] | D90 (particle size at 90% undersize) [μm] | Structure (SMILES)
1.01 | 2.68 | 5.93 | CCC(=O)O[C@]1(C(=O)SCF)[C@H](C)C[C@H]2[C@@H]3C[C@H](F)C4=CC(=O)C=C[C@]4(C)[C@@]3(F)[C@@H](O)C[C@@]21C [Example 1A, fluticasone propionate]
1.77 | 3.65 | 7.24 | CCC(=O)O[C@]1(C(=O)SCF)[C@H](C)C[C@H]2[C@@H]3C[C@H](F)C4=CC(=O)C=C[C@]4(C)[C@@]3(F)[C@@H](O)C[C@@]21C [Example 1B, fluticasone propionate]
